# Laboratory results from patent US20180055020A1, “Mice With Transgene Of iBox Peptide Inhibitor Of Group B p21-Activated Kinases” (Institute For Cancer Research d/b/a The Research Institute …, priority 2016, published 2018).
# Assays:
# Format in all cases: cell-based, mouse
# Fak = experiment: Immunoblot of lysates of ROSA26-iBox MEFs for signaling molecules (Fak and P-Fak); details: lysates of MEFs expressing iBox (Adeno-Cre), FIG. 5D
# Method: (§1) Primary mouse embryo fibroblasts were established from E14 embryos from pregnant ROSA26-iBox mice. Cell lines were maintained in DMEM medium supplemented with 10% of FBS, 2 mM L-glutamine and 100 Um′ penicillin/streptomycin ay 37° C. in a humidified 5% CO2 incubator. To document iBox and EGFP expression, the MEFs were transduced with Adeno-Cre which removes the LSL cassette. MEFs were imaged to documents EGFP expression and lysates were probed by immunoblot to document iBox expression using anti-GST antibodies that recognize the GST protein that is fused to the N-terminus of iBox. These lysates were also probed with antibodies against Erk and P-Erk, Src and P-Src, Fak and P-Fak, as well as GAPDH.
# (§2) To analyze endogenous Pak4 activity, Pak4 was immunoprecipitated from ROSA26-iBox MEFs and Protein-A-Pak4 beads were incubated with recombinant Pacsin or CRTC1 for 10 minutes at 30° C. in a buffer containing 50 mM Tris-HCl, pH 7.5, 10 mM MgCl2, 1 mM DTT, and 50 μM ATP. Reactions were terminated with hot 6×SDS/PAGE buffer and the samples were analyzed by immunoblot using anti-P-pacsin or anti-P-CRTC1 antibodies. […] Inhibition of Erk, Src, and Fak was observed.
# Src = experiment: Immunoblot of lysates of ROSA26-iBox MEFs for signaling molecules (Src and P-Src); details: lysates of MEFs expressing iBox (Adeno-Cre), FIG. 5D
# Method: as §1, §2
# [1] = tested on: each of the tissues studied; experiment: Cell proliferation on expression of the iBox transgene (preliminary experiments)
# Method: Cells were plated at 2×10^3 in 96-well plates and 10 μl of 3-[4,5-dimethylthiazol-2-yl]-2,5-diphenyl tetrazolium bromide (MTT) solution was added to each well to a final concentration of 0.5 mg/ml. The reaction was stopped after 4 hours at 37° C. by adding 100 μl of solubilization solution (10% SDS in 0.01M HCl) and the samples were analyzed at 595 nm on Perkin Elmer Envision plate reader. Triplicates were performed for each sample, and experiments were performed on three occasions. […] An anti-Gst blot is shown.
# Erk = experiment: Immunoblot of lysates of ROSA26-iBox MEFs for signaling molecules (Erk and P-Erk); details: lysates of MEFs expressing iBox (Adeno-Cre), FIG. 5D
# Method: as §1, §2
substance,measurement,setting,value
"iBox: Peptide inhibitor of Group B Paks, derived from amino acids 166 to 203 of human INKA-1, linked to GST, expressed from a transgene (GLEAEDWTAALLNRGRSRQPLVLGDNCFADLVHNWMEL; GST fusion; UniProt Q96EL1 166-203, looked up, fragment)",effect on Fak signaling (immunoblot),Fak,Inhibition
same,effect on Src signaling (immunoblot),Src,Inhibition
same,effect of iBox transgene expression on cell proliferation,[1],inhibited cell proliferation
same,effect on Erk signaling (immunoblot),Erk,Inhibition
